Test results from patent US9510598B2, “Nitrogen-containing heterocyclic compounds for plant disease control” (BAYER CROPSCIENCE AG, priority 2012, dated 2016).
Where two headings read alike, the source gives them in different places.

Key:
Pyrenophora teres = experiment: In vivo preventive test on Pyrenophora teres (net blotch on barley); conditions: 500 ppm; barley plants sprayed 24 hours before contamination; grading 12 days after contamination vs control plants
Method: Barley plants (“Plaisant” variety), sown in starter cups on a 50/50 peat soil-pozzolana substrate and grown at 22° C. (12 h)/20° C. (12 h), are treated at the 1-leaf stage (10 cm height) by spraying with the active ingredient prepared as described above. Plants, used as controls, are treated with the mixture of acetone/tween/DMSO/water not containing the active material. After 24 hours, the plants are contaminated by spraying the leaves with an aqueous suspension of Pyrenophora teres spores (12 000 spores per ml). The spores are collected from a 12-day-old culture. […] Grading (% of efficacy) is carried out 12 days after the contamination, in comparison with the control plants.

[1] = format: physicochemical
Septoria tritici = experiment: In vivo preventive test on Septoria tritici (leaf spot on wheat); conditions: 500 ppm; wheat plants sprayed 24 hours before contamination; grading 21 to 28 days after contamination vs control plants
Summary of the method: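 Scipion wheat at 1-leaf stage sprayed with compound, controls receiving acetone/tween/DMSO/water vehicle; 24 h later leaves inoculated with Septoria tritici spores (500 000 spores per ml). Efficacy (%) graded versus control plants 21 to 28 days after contamination.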

Sphaerotheca fuliginea = experiment: In vivo preventive test on Sphaerotheca fuliginea (powdery mildew on cucurbits); conditions: 500 ppm; gherkin plants sprayed 24 hours before contamination; grading 12 days after contamination vs control plants
Summary of the method: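 Preventive spray of gherkin plants at Z11 cotyledon stage, grown at 24° C; inoculation 24 hours later with Sphaerotheca fuliginea spores (100 000 spores per ml). Efficacy graded 12 days post-inoculation as % versus solvent-treated control plants.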

Uromyces appendiculatus = experiment: In vivo preventive test on Uromyces appendiculatus (bean rust); conditions: 500 ppm; bean plants sprayed 24 hours before contamination; grading 10 days after contamination vs control plants
Method: Bean plants (“Saxa” variety), sown in starter cups on a 50/50 peat soil-pozzolana substrate and grown at 24° C., are treated at the 2-leaf stage (9 cm height) by spraying with the active ingredient prepared as described above. Plants, used as controls, are treated with the mixture of acetone/tween/DMSO/water not containing the active material. After 24 hours, the plants are contaminated by spraying the leaves with an aqueous suspension of Uromyces appendiculatus spores (150 000 spores per ml).

Botrytis cinerea = experiment: In vivo preventive test on Botrytis cinerea (grey mould); conditions: 500 ppm; gherkin plants sprayed 24 hours before contamination; grading 4-5 days after contamination vs control plants
Summary of the method: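 Gherkin plants ("Vert petit de Paris") sprayed with compound at Z11 cotyledon stage, then inoculated 24 h later with B. cinerea spores (50 000/ml) in PDB/fructose/NH4NO3/KH2PO4 nutrient solution. Incubated at 17 °C, 80% RH; % efficacy versus solvent-treated controls graded 4–5 days after contamination.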

Puccinia recondita = experiment: In vivo preventive test on Puccinia recondita (brown rust on wheat); conditions: 500 ppm; wheat plants sprayed 24 hours before contamination; grading 10 days after contamination vs control plants
Method: Wheat plants (“Scipion” variety), sown in starter cups on a 50/50 peat soil-pozzolana substrate and grown at 22° C. (12 h)/20° C. (12 h), are treated at the 1-leaf stage (10 cm height) by spraying with the active ingredient prepared as described above. Plants, used as controls, are treated with the mixture of acetone/tween/DMSO/water not containing the active material. After 24 hours, the plants are contaminated by spraying the leaves with an aqueous suspension of Puccinia recondita spores (100 000 spores per ml).

Phytophthora infestans = format: in vivo; conditions: 500 ppm; tomato plants sprayed 24 hours before contamination; grading 5 days after contamination vs control plants
Alternaria brassicae = experiment: In vivo preventive test on Alternaria brassicae (leaf spot on radish); conditions: 500 ppm; radish plants sprayed 24 hours before contamination; grading 5 days after contamination vs control plants
Method: Radish plants (“Pernod Clair” variety), sown in starter cups on a 50/50 peat soil-pozzolana substrate and grown at 17° C., are treated at the 2-leaf stage by spraying with the active ingredient prepared as described above. Plants, used as controls, are treated with the mixture of acetone/tween/DMSO/water not containing the active material. After 24 hours, the plants are contaminated by spraying the leaves with an aqueous suspension of Alternaria brassicae spores (50 000 spores per ml). The spores are collected from a 15-day-old culture. […] Grading (% of efficacy) is carried out 5 days after the contamination, in comparison with the control plants.

[2] = method [a]: HPLC/LC-MS on reversed phase at pH 2.7, 0.1% formic acid in water / acetonitrile, linear gradient 10% to 95% acetonitrile
[3] = method [a]: HPLC/LC-MS on reversed phase at pH 2.7, 0.1% formic acid in water / acetonitrile, gradient 10% to 95% acetonitrile
[4] = HPLC on reversed phase columns, method [a]: pH 2.7, 0.1% formic acid in water / acetonitrile, linear gradient 10% to 95% acetonitrile

C#Cc1cnc2ccc(C3=NOC(C)(C(=O)NCc4ccc(Cl)cc4)C3)cc2c1 (stereo not drawn) [compound 200]
% of efficacy (protection) (Pyrenophora teres): 71%
log P [1, 2]: 3.23^[a]

CC1(C(=O)NCc2ccc3c(c2)CCO3)CC(c2ccc3ncc(Br)cc3c2)=NO1 (stereo not drawn) [compound 122]
% of efficacy (protection) (Pyrenophora teres): 86%
log P [1, 2]: 3.13^[a]

COC1C(c2ccc3ncc(Br)cc3c2)=NOC1(C)C(=O)NC(C)C (stereo not drawn) [compound 419]
% of efficacy (protection) (Pyrenophora teres): 75%
log P [1, 3]: 2.91[a]

C#Cc1cnc2ccc(C3=NOC(OC)(C(=O)NC4CCC4)C3)cc2c1 (racemic) [compound 429]
% of efficacy (protection) (Septoria tritici): 100%
% of efficacy (protection) (Sphaerotheca fuliginea): 83%
log P [1, 3]: 2.54[a]
% of efficacy (protection) (Uromyces appendiculatus): 71%
% of efficacy (protection) (Botrytis cinerea): 100%
% of efficacy (protection) (Puccinia recondita): 89%

COC1(C(=O)NC2CCC2)CC(c2ccc3ncc(Br)cc3c2)=NO1 (stereo not drawn) [compound 414]
% of efficacy (protection) (Septoria tritici): 100%
% of efficacy (protection) (Sphaerotheca fuliginea): 98%
log P [1, 3]: 2.84[a]
% of efficacy (protection) (Uromyces appendiculatus): 100%
% of efficacy (protection) (Botrytis cinerea): 100%
% of efficacy (protection) (Puccinia recondita): 89%

CCn1cc(CNC(=O)C2(C)CC(c3ccc4ncc(-c5ccccc5)cc4c3)=NO2)c(C)n1 (stereo not drawn) [compound 140]
% of efficacy (protection) (Septoria tritici): 80%
% of efficacy (protection) (Sphaerotheca fuliginea): 83%
log P [1, 2]: 2.63^[a]
% of efficacy (protection) (Uromyces appendiculatus): 96%
% of efficacy (protection) (Puccinia recondita): 81%

CC(C)NC(=O)C1(C(F)F)CC(c2ccc3ncc(Br)cc3c2)=NO1 (stereo not drawn) [compound 480]
% of efficacy (protection) (Uromyces appendiculatus): 83%
% of efficacy (protection) (Puccinia recondita): 90%

C=CC1(C(=O)NCc2cn(CC)nc2C)CC(c2ccc3ncc(Br)cc3c2)=NO1 (stereo not drawn) [compound 599]
% of efficacy (protection) (Septoria tritici): 100%
% of efficacy (protection) (Sphaerotheca fuliginea): 100%
% of efficacy (protection) (Phytophthora infestans): 85%
log P [1, 4]: 2.61[a]
% of efficacy (protection) (Botrytis cinerea): 100%
% of efficacy (protection) (Puccinia recondita): 88%

C#Cc1cnc2ccc(C3=NOC(CC)(C(=O)NC4CCC4)C3)cc2c1 (racemic) [compound 447]
% of efficacy (protection) (Septoria tritici): 75%
% of efficacy (protection) (Sphaerotheca fuliginea): 75%
log P [1, 3]: 2.94[a]
% of efficacy (protection) (Uromyces appendiculatus): 100%
% of efficacy (protection) (Botrytis cinerea): 97%
% of efficacy (protection) (Puccinia recondita): 89%

CC(NC(=O)C1(C)CC(c2ccc3ncc(Br)cc3c2)=NO1)c1ccccn1 (stereo not drawn) [compound 205]
% of efficacy (protection) (Septoria tritici): 100%
% of efficacy (protection) (Sphaerotheca fuliginea): 75%
log P [1, 2]: 2.14^[a]
% of efficacy (protection) (Uromyces appendiculatus): 70%
% of efficacy (protection) (Botrytis cinerea): 84%

COC1(C(=O)NC2CCC2)CC(c2ccc3ncc(I)cc3c2)=NO1 (stereo not drawn) [compound 482]
% of efficacy (protection) (Septoria tritici): 100%
% of efficacy (protection) (Sphaerotheca fuliginea): 100%
log P [1, 3]: 2.95[a]
% of efficacy (protection) (Uromyces appendiculatus): 98%
% of efficacy (protection) (Botrytis cinerea): 100%
% of efficacy (protection) (Puccinia recondita): 83%

CC(C)NC(=O)C1(C)ON=C(c2ccc3ncc(Br)cc3c2)C1C(F)(F)F (stereo not drawn) [compound 423]
% of efficacy (protection) (Alternaria brassicae): 83%
log P [1, 3]: 3.71[a]
% of efficacy (protection) (Puccinia recondita): 78%

COC1(C(=O)NC2CC2)CC(c2ccc3ncc(I)cc3c2)=NO1 (racemic) [compound 450]
% of efficacy (protection) (Septoria tritici): 98%
% of efficacy (protection) (Sphaerotheca fuliginea): 98%
log P [1, 3]: 2.48[a]
% of efficacy (protection) (Uromyces appendiculatus): 91%
% of efficacy (protection) (Botrytis cinerea): 100%
% of efficacy (protection) (Puccinia recondita): 89%

C#CC1(NC(=O)C2(C)CC(c3ccc4ncc(Br)cc4c3)=NO2)CCCCC1 (stereo not drawn) [compound 237]
% of efficacy (protection) (Alternaria brassicae): 71%
log P [1, 4]: 3.9^[a]
% of efficacy (protection) (Uromyces appendiculatus): 80%

CC(C)NC(=O)C1(C)CC(c2ccc3ncc(-c4ccco4)cc3c2)=NO1 (racemic) [compound 382]
log P [1, 3]: 2.77[a]
% of efficacy (protection) (Uromyces appendiculatus): 89%
% of efficacy (protection) (Puccinia recondita): 79%

CCn1cc(CNC(=O)C2(C)CC(c3ccc4ncc(OC)cc4c3)=NO2)c(C)n1 (stereo not drawn) [compound 135]
% of efficacy (protection) (Alternaria brassicae): 100%
% of efficacy (protection) (Septoria tritici): 100%
log P [1, 2]: 1.83^[a]
% of efficacy (protection) (Puccinia recondita): 89%

C#Cc1cnc2ccc(C3=NOC(OC)(C(=O)NCc4cn(CC)nc4C)C3)cc2c1 (racemic) [compound 442]
% of efficacy (protection) (Septoria tritici): 97%
% of efficacy (protection) (Sphaerotheca fuliginea): 100%
% of efficacy (protection) (Phytophthora infestans): 94%
log P [1, 3]: 2.14[a]
% of efficacy (protection) (Uromyces appendiculatus): 88%
% of efficacy (protection) (Botrytis cinerea): 100%
% of efficacy (protection) (Puccinia recondita): 89%

C#Cc1cnc2ccc(C3=NOC(CC)(C(=O)NCc4cn(CC)nc4C)C3)cc2c1 (racemic) [compound 438]
% of efficacy (protection) (Septoria tritici): 100%
% of efficacy (protection) (Sphaerotheca fuliginea): 89%
% of efficacy (protection) (Phytophthora infestans): 87%
log P [1, 3]: 2.37[a]
% of efficacy (protection) (Uromyces appendiculatus): 97%
% of efficacy (protection) (Puccinia recondita): 88%

C#Cc1cnc2ccc(C3=NOC(CC)(C(=O)NCC4COC(C)(C)O4)C3)cc2c1 (mixture of isomers) [compound 441]
% of efficacy (protection) (Septoria tritici): 100%
% of efficacy (protection) (Sphaerotheca fuliginea): 94%
log P [1, 3]: 2.66[a]
% of efficacy (protection) (Uromyces appendiculatus): 91%
% of efficacy (protection) (Puccinia recondita): 83%

COC1(C(=O)NCC(O)CO)CC(c2ccc3ncc(Br)cc3c2)=NO1 (stereo not drawn) [compound 477]
% of efficacy (protection) (Sphaerotheca fuliginea): 75%
% of efficacy (protection) (Phytophthora infestans): 98%
log P [1, 3]: 1.59[a]
% of efficacy (protection) (Uromyces appendiculatus): 86%
% of efficacy (protection) (Puccinia recondita): 90%

COCC(COC)NC(=O)C1(C)CC(c2ccc3ncc(Br)cc3c2)=NO1 (stereo not drawn) [compound 305]
log P [1, 4]: 2.56[a]
% of efficacy (protection) (Uromyces appendiculatus): 80%

C#Cc1cnc2ccc(C3=NOC(C=C)(C(=O)NCc4cn(CC)nc4C)C3)cc2c1 (stereo not drawn) [compound 724]
% of efficacy (protection) (Septoria tritici): 100%
% of efficacy (protection) (Sphaerotheca fuliginea): 100%
% of efficacy (protection) (Phytophthora infestans): 100%
log P ([1]; HPLC on reversed phase columns, method [a]: pH 2.7, 0.1% formic acid in water and acetonitrile, linear gradient 10% to 95% acetonitrile): 2.37[a]
% of efficacy (protection) (Botrytis cinerea): 98%
% of efficacy (protection) (Puccinia recondita): 71%

C#Cc1cnc2ccc(C3=NOC(OC)(C(=O)NCC4COC(C)(C)O4)C3)cc2c1 (stereo not drawn) [compound 476]
% of efficacy (protection) (Septoria tritici): 97%
% of efficacy (protection) (Sphaerotheca fuliginea): 98%
% of efficacy (protection) (Phytophthora infestans): 85%
log P [1, 3]: 2.35[a]
% of efficacy (protection) (Uromyces appendiculatus): 77%
% of efficacy (protection) (Botrytis cinerea): 100%
% of efficacy (protection) (Puccinia recondita): 90%

C/C(=N\O)C1(C(=O)NC(C)C)CC(c2ccc3ncc(Br)cc3c2)=NO1 (stereo not drawn) [compound 420]
log P [1, 3]: 2.58[a]
% of efficacy (protection) (Uromyces appendiculatus): 97%
% of efficacy (protection) (Puccinia recondita): 94%

CCn1cc(CNC(=O)C2(C)CC(c3ccc4ncc(-c5cncnc5)cc4c3)=NO2)c(C)n1 (stereo not drawn) [compound 265]
log P [1, 4]: 1.62^[a]
% of efficacy (protection) (Uromyces appendiculatus): 96%
% of efficacy (protection) (Puccinia recondita): 88%

Cn1cc(NC(=O)C2(C)CC(c3ccc4ncc(Br)cc4c3)=NO2)cn1 (racemic) [compound 434]
% of efficacy (protection) (Septoria tritici): 100%
log P [1, 3]: 2.17[a]
% of efficacy (protection) (Uromyces appendiculatus): 97%
% of efficacy (protection) (Puccinia recondita): 88%

C#Cc1cnc2ccc(C3=NOC(C)(C(=O)NCc4ccsc4)C3)cc2c1 (stereo not drawn) [compound 515]
% of efficacy (protection) (Septoria tritici): 97%
% of efficacy (protection) (Sphaerotheca fuliginea): 93%
log P [1, 4]: 2.71[a]
% of efficacy (protection) (Uromyces appendiculatus): 91%
% of efficacy (protection) (Botrytis cinerea): 100%
